Measurements as given in patent US7935722B2 (Eli Lilly and Company, priority 2005, dated 2011).

Experiments:
[1] = biological target: T1, human AR (androgen receptor) (Homo sapiens, UniProt P10275); experiment: Steroid hormone nuclear receptor binding assay, AR binding
T1 construct: expressed in transfected cells; host or cells: 293 cells (293-AR lysate)
T1 sequence (P10275 1-920): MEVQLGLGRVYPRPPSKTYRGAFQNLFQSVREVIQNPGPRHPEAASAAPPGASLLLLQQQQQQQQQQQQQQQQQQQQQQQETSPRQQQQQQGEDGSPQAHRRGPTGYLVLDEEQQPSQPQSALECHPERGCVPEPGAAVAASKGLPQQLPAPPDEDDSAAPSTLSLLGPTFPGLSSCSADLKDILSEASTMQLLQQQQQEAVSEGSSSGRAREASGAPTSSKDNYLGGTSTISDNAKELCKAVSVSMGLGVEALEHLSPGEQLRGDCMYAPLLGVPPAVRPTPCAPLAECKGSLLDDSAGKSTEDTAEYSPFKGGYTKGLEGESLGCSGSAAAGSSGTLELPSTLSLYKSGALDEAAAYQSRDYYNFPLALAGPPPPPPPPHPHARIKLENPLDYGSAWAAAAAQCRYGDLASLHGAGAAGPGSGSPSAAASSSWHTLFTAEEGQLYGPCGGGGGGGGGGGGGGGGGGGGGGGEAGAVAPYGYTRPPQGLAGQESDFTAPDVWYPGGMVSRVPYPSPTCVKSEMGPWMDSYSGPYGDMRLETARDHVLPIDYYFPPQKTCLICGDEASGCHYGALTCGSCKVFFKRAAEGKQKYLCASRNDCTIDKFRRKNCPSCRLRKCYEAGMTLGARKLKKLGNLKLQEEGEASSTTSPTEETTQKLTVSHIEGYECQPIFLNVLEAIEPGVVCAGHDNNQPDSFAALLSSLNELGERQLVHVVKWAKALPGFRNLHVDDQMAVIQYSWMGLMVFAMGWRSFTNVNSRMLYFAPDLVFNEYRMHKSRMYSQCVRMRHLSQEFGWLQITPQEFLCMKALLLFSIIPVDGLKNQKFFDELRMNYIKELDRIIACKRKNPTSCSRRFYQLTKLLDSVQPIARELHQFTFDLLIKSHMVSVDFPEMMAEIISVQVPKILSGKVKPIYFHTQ
How it was run: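 Competition binding with lysates of 293 cells overexpressing human AR, [3H]-methyltrienolone tracer, compounds from about 0.01 nM to 10 μM, overnight at 4 °C; non-specific binding set with 500 nM methyltrienolone. Bound tracer counted by scintillation after charcoal-dextran separation; IC50 converted to Ki by Cheng-Prusoff using Kd from saturation binding.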

[2] = biological target: T2, human androgen receptor (AR) (Homo sapiens, UniProt P10275); experiment: C2C12 AR/ARE reporter assay; format: cell-based; settings: for Emax: C2C12, read-out: C2C12 % Efficacy
T2 construct: expressed in transfected cells; host or cells: mouse myoblast C2C12 cells, transiently co-transfected
T2 sequence (P10275 1-920): T1 sequence (P10275 1-920)
How it was run: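 Mouse C2C12 myoblasts co-transfected with AR/ARE reporter were plated in charcoal-stripped serum and treated for 48 h with compound from about 0.01 nM to 10 μM. Luciferase activity gave EC50 by 4-parameter logistic fit. Efficacy is expressed as % of maximal stimulation by 10 nM methyltrienolone.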

SMILES | Ki [1] | EC50 [2] | Emax [2] | melting point
Cc1ccc2c(c1)c1c(n2Cc2cccc(C#N)c2)CCC(NC(=O)C(C)C)C1 (stereo not shown) [Example 50] | 150 nM | 940 nM | 45.8% | 209 to 211 °C
CC(C)C(=O)N[C@@H]1CCc2c(c3cc(-c4ccno4)ccc3n2Cc2cccc(F)c2)C1 [Example 192, (R)-N-[9-(3-Fluoro-benzyl)-6-isoxazol-5-yl-2,3,4,9-tetrahydro-1H-carbazol-3-yl]-isobutyramide] | 2.6 nM | 7.7 nM | 66.5% | 238 to 241 °C
CC(C)C(=O)NC1CCc2c(c3cc(Cl)ccc3n2Cc2cccc(C#N)c2)C1 (stereo not shown) [Example 24] | – | – | 48.9% | 225 to 228 °C (dec.)
Cc1cccc2c3c(n(Cc4cccc(F)c4)c12)CCC(NC(=O)C(C)C)C3 (stereo not shown) [Example 60] | 35.9 nM | 299 nM | 74.2% | 188 to 191 °C
CC(C)C(=O)NC1CCc2c(c3ccc(Cl)cc3n2Cc2cccc(F)c2)C1 (stereo not shown) [Example 56] | – | – | 66.6% | 233 to 235 °C
CC(C)C(=O)NC1CCc2c(c3cc(C#N)ccc3n2Cc2ccccc2OC(F)F)C1 (stereo not shown) [Example 97, N-[6-Cyano-9-(2-difluoromethoxy-benzyl)-2,3,4,9-tetrahydro-1H-carbazol-3-yl]-isobutyramide] | 4.6 nM | 32.8 nM | 102% | 217 to 219 °C
CC(C)C(=O)NC1CCc2c(c3cc(Br)ccc3n2Cc2ccc(F)cc2)C1 (stereo not shown) [Example 39] | 5.3 nM | 28.9 nM | 76.1% | 165 to 170 °C
N#Cc1ccc2c(c1)c1c(n2Cc2ccccn2)CC[C@@H](NC(=O)C2CC2)C1 [Example 196, Cyclopropanecarboxylic acid[6-cyano-9-(pyridin-2-ylmethyl)-2,3,4,9-tetrahydro-1H-carbazol-3-yl]-amide] | 16.1 nM | 15.3 nM | 95.2% | 239 to 241 °C
CC(C)C(=O)NC1CCc2c(c3cc(-c4nccs4)ccc3n2Cc2cccc(F)c2)C1 (stereo not shown) [Example 130, N-[9-(3-Fluorobenzyl)-6-thiazol-2-yl-2,3,4,9-tetrahydro-1H-carbazol-3-yl]isobutyramide] | 13.6 nM | 5 nM | 85.6% | 221 to 225 °C
CC(C)C(=O)NC1CCc2c(c3cc(Br)ccc3n2Cc2ccccc2C#N)C1 (stereo not shown) [Example 33] | 13 nM | 433 nM | 87.3% | 240 to 241.5 °C
CO/N=C/c1ccc2c(c1)c1c(n2Cc2ccccn2)CC[C@@H](NC(=O)C2CC2)C1 [Example 208, (R)-Cyclopropanecarboxylic acid[6-(1-methoxyimino-methyl)-9-pyridin-2-ylmethyl-2,3,4,9-tetrahydro-1H-carbazol-3-yl]-amide] | 21.1 nM | 3.8 nM | 96.3% | 215 to 217 °C
CC(C)C(=O)NC1CCc2c(c3cc(Cl)ccc3n2Cc2cccc(Cl)c2)C1 (stereo not shown) [Example 22] | 3.5 nM | 75.7 nM | 74.7% | 187 to 189 °C
CC(C)C(=O)NC1CCc2c(c3cc(Br)ccc3n2Cc2ccccc2F)C1 (stereo not shown) [Example 31] | 5.3 nM | 58.7 nM | 70.8% | 194 to 197 °C
CC(C)C(=O)NC1CCc2c(c3cc(Cl)ccc3n2Cc2ccccc2F)C1 (stereo not shown) [Example 17] | 8.6 nM | 148 nM | 62.1% | 190 to 193 °C
CC(C)C(=O)NC1CCc2c(c3cc(F)ccc3n2Cc2cccc(Cl)c2)C1 (stereo not shown) [Example 9] | 7.2 nM | 113 nM | 62.3% | 177 to 179 °C
CC(C)C(=O)NC1CCc2c(c3cccc(F)c3n2Cc2cccc(F)c2)C1 (stereo not shown) [Example 58] | – | – | 62.1% | 185 to 188 °C
COc1ccccc1Cn1c2c(c3cc(Cl)ccc31)CC(NC(=O)C(C)C)CC2 (stereo not shown) [Example 19, N-[6-chloro-9-(2-methoxy-benzyl)-2,3,4,9-tetrahydro-1H-carbazol-3-yl]-isobutyramide] | 37.8 nM | 245 nM | 63.2% | 141 to 149 °C
CC(C)C(=O)NC1CCc2c(c3cc(Br)ccc3n2Cc2ccccc2)C1 (stereo not shown) [Example 30] | – | – | 87% | 173 to 177 °C

SMILES | Ki [1] | EC50 [2] | Emax [2] | melting point
CC(C)C(=O)NC1CCc2c(c3cc(Cl)ccc3n2Cc2cc(F)cc(F)c2)C1 (stereo not shown) [Example 29] | – | – | 64% | 207 to 210 °C
CC(C)C(=O)NC1CCc2c(c3cc(Cl)ccc3n2Cc2cccc(F)c2)C1 (stereo not shown) [Example 21] | – | – | 81% | 187 to 189 °C
COc1cccc(Cn2c3c(c4cc(Cl)ccc42)CC(NC(=O)C(C)C)CC3)c1 (stereo not shown) [Example 23] | – | – | 54.4% | 178 to 181 °C
CC(C)C(=O)NC1CCc2c(c3cc(Cl)ccc3n2Cc2ccccc2)C1 (stereo not shown) [Example 16] | – | – | 86% | 174 to 176 °C
COc1ccccc1Cn1c2c(c3cc(Br)ccc31)CC(NC(=O)C(C)C)CC2 (stereo not shown) [Example 34] | – | – | 103% | 108 to 111 °C
CC(C)C(=O)N[C@@H]1CCc2c(c3cc(Br)ccc3n2Cc2cccc(F)c2)C1 [Example 122] | – | – | – | 204 to 207 °C
Cc1ccc2c(c1)c1c(n2Cc2cccc(F)c2)CCC(NC(=O)C(C)C)C1 (stereo not shown) [Example 47] | – | – | 86.3% | 215 to 217 °C
CC(C)C(=O)NC1CCc2c(c3cc(Cl)ccc3n2Cc2ccc(F)cc2)C1 (stereo not shown) [Example 25] | – | – | 62.7% | 175 to 178 °C
CC(C)C(=O)NC1CCc2c(c3cc(Br)ccc3n2Cc2ccccc2Cl)C1 (stereo not shown) [Example 32] | – | – | 94.3% | 196 to 198 °C
CC(C)C(=O)NC1CCc2c(c3cc(F)ccc3n2Cc2ccccc2F)C1 (stereo not shown) [Example 4] | – | – | 36.1% | 156 to 158 °C
CC(C)C(=O)NC1CCc2c(c3cc(C#N)ccc3n2Cc2cccc(F)c2)C1 (stereo not shown) [Example 51, N-(6-cyano-9-(3-fluorobenzyl)-2,3,4,9-tetrahydro-1H-carbazol-3-yl)isobutyramide] | – | – | 87.5% | 195 to 199 °C
CC(C)C(=O)N[C@@H]1CCc2c(c3cc(C#N)ccc3n2Cc2ccccc2N)C1 (single isomer, unassigned) [Example 110, R-N-[9-(2-Amino-benzyl)-6-cyano-2,3,4,9-tetrahydro-1H-carbazol-3-yl]-isobutyramide] | 4.8 nM | 1.8 nM | 110% | –
CC(C)C(=O)NC1CCc2c(c3cc(Cl)ccc3n2Cc2cccc(C(F)(F)F)c2)C1 (stereo not shown) [Example 83] | 29.5 nM | 85.1 nM | 93.1% | –
O=C(NC1CCc2c(c3cc(Br)ccc3n2Cc2cccc(F)c2)C1)C1CC1 (stereo not shown) [Example 170, Cyclopropanecarboxylic acid [6-bromo-9-(3-fluoro-benzyl)-2,3,4,9-tetrahydro-1H-carbazol-3-yl]-amide] | 5.9 nM | 22.4 nM | 67.2% | –
CC(C)C(=O)NC1CCc2c(c3cc(C#N)ccc3n2Cc2ccccc2[N+](=O)[O-])C1 (stereo not shown) [Example 108, N-[6-Cyano-9-(2-nitro-benzyl)-2,3,4,9-tetrahydro-1H-carbazol-3-yl]-isobutyramide] | 57.3 nM | 718 nM | 58.4% | –
CC(C)C(=O)NC1CCc2c(c3cc(C#N)ccc3n2Cc2ccccc2N)C1 (stereo not shown) [Example 109, N-[9-(2-Amino-benzyl)-6-cyano-2,3,4,9-tetrahydro-1H-carbazol-3-yl]-isobutyramide] | 15.9 nM | 2.3 nM | 76.9% | –
CC(C)C(=O)NC1CCc2c(c3cc(C#N)ccc3n2Cc2cscn2)C1 (stereo not shown) [Example 147, N-(6-Cyano-9-thiazol-4-ylmethyl-2,3,4,9-tetrahydro-1H-carbazol-3-yl)-isobutyramide] | 29.2 nM | 79.7 nM | 102% | –
